According to patent US20110082148A1, “TREATING, PREVENTING OR AMELIORATING A HYPERPROLIFERATIVE DISEASE/DISORDER” (priority 2009, published 2011):

Columns and labels:
[1] = system: National Cancer Institute 60 cell line; experiment: National Cancer Institute 60 cell line one dose test; type: cell-based; settings: NCI 60 cell line, across many cell lines
Protocol: FIG. 1 illustrates a National Cancer Institute 60 cell line one dose mean graph for erdosteine. […] A National Cancer Institute 60 cell line test was performed using erdosteine. FIG. 1 illustrates the effectiveness of the erdosteine at inhibiting cancer cell growth in several cell lines. […] A National Cancer Institute 60 cell line test was performed using cinoxacin. FIG. 2 illustrates the effectiveness of the cinoxacin at inhibiting cancer cell growth in several cell lines is shown.

HL60 xenograft = type: in vivo
Protocol: FIG. 4(b) illustrates the tumor volume growth of HL60 xenograft over time after treatment with cinoxacin in dosages of 100 mg/kg and 300 mg/kg as compared to control sample.
FIGS. 4(a) and (b) show the tumor volume growth of an HL60 xenograft over time after treatment with cinoxacin in different dosages as compared to a control sample. The cinoxacin was obtained from Signma Aldrich (MOL_ID—1), and solubilized in […] and phosphate buffered saline and administered […] to test mice. […] The treatment regimen was implemented as 3 day+3 day, with an ip single injection each day. Tumor volume was measured by ruler. […] The mice were provided a single dose daily for ten consecutive days. […] It is believed that higher dosages could also be used without incurring detrimental effects.

[2] = system: RPMI-8226-luc human myeloma xenografts; experiment: RPMI-8226-luc human myeloma xenografts in NSG mice, survival; type: in vivo, NOD scid gamma (NSG) mice; settings: for survival time: controls all died before 20 days
From the text: FIG. 5(a) illustrates the photons/sec/cm^2×10^−6 present over time in RPMI-8226-luc human myeloma xenografts in NSG mice.
FIG. 5(b) illustrates the percentage of male and female mice survival over time when provided varying dosage amounts of cinoxacin as compared to a control sample.
FIG. 5(b) illustrates the survival percentage of male and female mice when treated with various dosages of cinoxacin for a period of 10 to 40 days. FIGS. 5(a) and (b) display that the controls all died before 20 days had passed. The females died around 25 days; however, all the males survived for 40 days when treatment was stopped. […] By the time the drug was administered, the concentration of myeloma cells in female mice had reached about 9×10^6, which appears to be beyond repair.

[3] = Administration to mice, adverse side effects; type: in vivo; settings: from about 25 mg/kg to about 15 mg/kg
From the text: However, in any given case, the amount of the compound administered will depend on such factors as the solubility of the active component, the formulation used, subject condition (such as weight), and/or the route of administration.

Compound | cell growth compared with control specimen [1] | tumor volume increase (HL60 xenograft; FIG. 4(a), 100 mg/kg compared to 25 mg/kg and 50 mg/kg, 3 day+3 day, single injection each day) | growth of Leukemic cells (tumor volume growth) (HL60 xenograft; FIG. 4(b), 100 mg/kg and 300 mg/kg vs control, single dose daily for ten consecutive days, particularly at 200 mg/kg) | survival time ([2]; female mice treated with cinoxacin) | survival time ([2]; male mice treated with cinoxacin, treatment stopped at 40 days) [days] | survival compared to female mice and controls ([2]; male mice, 1500 mg/kg/day) | adverse side effects [3]
CCn1nc(C(=O)O)c(=O)c2cc3c(cc21)OCO3 [cinoxacin] | lower than in a control specimen | slower tumor volume increase | substantial slowing down of the growth of Leukemic cells | around 25 days | ≥ 40 | survival was prolonged | without adverse side effects
O=C(O)CSCC(=O)NC1CCSC1=O (stereo not drawn) [erdosteine] | lower than in a control specimen |  |  |  |  |  | without adverse side effects
